# From patent US7507761B2, “Benzopyran derivatives, method of production and use thereof” (Universite de Liege, priority 2004, dated 2009)
# Where two headings read alike, the source gives them in different places.
# Experiments:
# [1] = test system: rat pancreatic islets; test: Insulin release from incubated rat pancreatic islets; format: cell-based; conditions: 10 μM compound, 16.7 mM glucose, % of control without drug; mean ± s.e.m. (n)
# Method: Measurement of insulin release from incubated rat pancreatic islets was performed according to the following procedure.
# Experiments were performed with pancreatic islets isolated from adult fed Wistar rats (Charles River Laboratories, Belgium).
# Groups of 10 islets, each derived from the same batch of islets, were preincubated for 30 minutes at 37° C. in 1 mL of a physiological salt medium (in mM: NaCl 115, KCl 5, CaCl2 2.56, MgCl2 1, NaHCO3 24) supplemented with 2.8 mM glucose, 0.5% (w:v) dialyzed albumin (Sigma) and equilibrated against a mixture of O2 (95%) and CO2 (5%). The islets were then incubated at 37° C. for 90 minutes in 1 mL of the same medium containing 16.7 mM glucose and, in addition, the required benzopyran derivative.
# The release of insulin was measured radioimmunologically according to Leclercq-Meyer et al., Endocrinology, 1985, 116, 1168-1174 using rat insulin as a standard.
# Residual insulin secretion was expressed as a percentage of the value recorded in control experiments (100%); i.e. in the absence of drug and presence of 16.7 mM glucose. Measurement of 86Rb outflow from perifused rat pancreatic islets was performed according to the following procedure. Groups of 100 islets were incubated for 60 min in a medium containing 16.7 mM glucose and 86Rb (0.15-0.25 mM; 50 μCi/ml). After incubation, the islets were washed three times and then placed in a perifusion chamber. The perifusate was delivered at a constant rate (1.0 ml/min). From the 31st to the 90th min, the effluent was continuously collected over successive periods of 1 min each. An aliquot of the effluent (0.6 ml) was used for scintillation counting. At the end of the perifusion, the radioactive content of the islets was determined. The outflow of 86Rb (cpm/min) was expressed as a fractional outflow rate (% of instantaneous islet content/min; FOR).
# [2] = test system: rat aorta rings; test: Measurement of tension in rat aorta rings (myorelaxant activity); format: cell-based; conditions: KCl-contracted rat aorta rings; concentration evoking 50% inhibition of plateau phase; mean ± s.e.m. (n); read-out: Myorelaxant activity ED50
# Method: Measurement of tension in rat aorta rings was performed according to the following procedure.
# Experiments were performed with aorta removed from adult fed Wistar rats (Charles River Laboratories, Belgium).
# A section of the thoracic aorta was cleared of adhering fat and connective tissue and was cut into transverse rings (3-4 mm long). The endothelium was removed and the segments suspended under 1.5 g tension in an organ bath containing 20 mL of a physiological solution (in mM: NaCl 118, KCl 4.7, CaCl2 2.5, NaHCO3 25, KH2PO4 1.2, MgSO4 1.2, glucose 5). The physiological solution was maintained at 37° C. and continuously bubbled with a mixture of O2 (95%) and CO2 (5%). Isometric contractions were measured with a force-displacement transducer. After 60 minutes of equilibration, the rings were exposed to KCl (30 or 80 mM). When the tension had stabilized, the chroman derivative was added to the bath at increasing concentrations until maximal relaxation (or until 300 µM). Some experiments were repeated in the continuous presence of 1 or 10 µM glibenclamide in the bathing medium.
# The relaxation response was expressed as the percentage of the contractile response to KCl. The ED50 values (concentration evoking 50% inhibition of the plateau phase induced by KCl) were assessed from dose-response curves using Datanalyst software (EMKA Technologies, France).
# [3] = test system: rat pancreatic islets; conditions: cited from earlier work; for Residual insulin secretion (%) [10 μM]: 10 μM compound, published results (footnotes b, c)
Compound,Residual insulin secretion (%) [10 μM] [1],further results
"CC1(C)Oc2ccc(C#N)cc2C(N2CCCC2=O)C1O (stereo not drawn) [Cromakalim, cromakalim]",94.7 ± 4.3 (24) %,"EC50 [2]: 130 ± 10 nM; Activity as an inhibitor of insulin secretion (in words) ([3]; background statement, reflects poor activity as PCO on pancreatic KATP channels): poorly active"
"CC1=NS(=O)(=O)c2cc(Cl)ccc2N1 [Diazoxide, diazoxide]",,Residual insulin secretion (%) [10 μM] [3]: 71.7 ± 2.8 (38)^b %
"Cc1cccc(NC(=S)NC2CC(C)(C)Oc3ccc(F)cc32)c1 (stereo not drawn) [Example 4, R/S-3,4-Dihydro-2,2-dimethyl-6-fluoro-4-(3-methylphenylaminothiocarbonylamino)-2H-1-benzopyran]",53.1 ± 3.6%,
"Cc1ccc(NC(=S)NC2CC(C)(C)Oc3ccc(Cl)cc32)cc1 (stereo not drawn) [Example 8, R/S-6-Chloro-3,4-dihydro-2,2-dimethyl-4-(4-methylphenylaminothiocarbonylamino)-2H-1-benzopyran]",32.8 ± 1.9%,
"COc1cccc(NC(=S)NC2CC(C)(C)Oc3ccc(F)cc32)c1 (stereo not drawn) [Example 22, R/S-3,4-Dihydro-2,2-dimethyl-6-fluoro-4-(3-methoxyphenylaminothiocarbonylamino)-2H-1-benzopyran]",52.0 ± 2.3%,
"CC1(C)CC(NC(=S)Nc2cccnc2)c2cc(Br)ccc2O1 (stereo not drawn) [Example 42, R/S-6-Bromo-3,4-dihydro-2,2-dimethyl-4-(3-pyridylaminothiocarbonylamino)-2H-1-benzopyran]",44.3 ± 2.8%,
"CC1(C)CC(NC(=O)Nc2cccc(Cl)c2)c2cc(F)ccc2O1 (stereo not drawn) [Example 77, R/S-4-(3-Chlorophenylaminocarbonylamino)-3,4-dihydro-2,2-dimethyl-6-fluoro-2H-1-benzopyran]",28.0 ± 1.5%,
"CC1(C)CC(NC(=O)Nc2ccc(Cl)cc2)c2cc(Br)ccc2O1 (stereo not drawn) [Example 82, R/S-6-Bromo-4-(4-chlorophenylaminocarbonylamino)-3,4-dihydro-2,2-dimethyl-2H-1-benzopyran]",25.7 ± 1.5%,
"CC(N/C(=N\C#N)Nc1ccncc1)C(C)(C)C (stereo not drawn) [Pinacidil, pinacidil]",,EC50 [2]: 350 ± 20 nM; Residual insulin secretion (%) [10 μM] [3]: 96.0 ± 4.2 (20)^c %
